Measurements taken from patent US11485714B2, “Hydroxyethylamine-based piperazine compounds, and methods of producing and using the same for treating disease” (National Institute of Immunology, priority 2020, dated 2022).
Like-named read-outs stand apart in the source and are kept apart here.

Legend:
human platelets = assay: Agonist-induced platelet aggregation; type: cell-based; details: up to 20 μg/ml
Description: Studies were performed to assess the effect of Calxinin on hemostatic parameters using plasmatic and whole blood assays.

[1] = In vivo acute toxicity study and pathological examination; parameters: species or system BALB/C mice
Description: Again mice were randomly divided in two groups. Each group consisted of 3 mice.
Mice were divided into two groups of three mice. […] Again Mice were randomly divided in two groups. Each group consisted of 3 mice. […] Serum was taken for biochemistry studies.

[2] = test system: P. falciparum CQ-sensitive (Pf3D7); assay: SYBR Green I assay, asynchronous cultures, CQ-sensitive clone; type: cell-based; details: Plasmodium falciparum
Description: Initially, antimalarial activity of Compound I was assessed on asynchronous cultures of P. falciparum sensitive (Pf3D7) clone using the SYBR Green assay. […] DMSO was used as a vehicle control, CQ (Chloroquine), DOX (Doxycycline) and DHA (Dihydroartemisinin).

[3] = test system: human T-type calcium channel; assay: Whole cell patch clamp in HEK 293 cells; type: cell-based; details: increasing concentrations up to 1 microMolar
Description: These currents were measured with the Patch clamp method in the “whole cell” configuration. In this configuration, the total currents that pass through all the calcium channels present in the plasma membrane are measured. In this case, it is measured in HEK cells, which constitutively express the human T type Calcium channel. In this case, the internal solutions contain the Cs+ instead of K+, thus blocking the K+ channels and the external one contains TEA an external channel blocker of K. This way the only currents that can develop in these cells are that of T type Calcium channels. This calcium channel is a voltage dependent channel, which is characterized by activating at membrane potentials that are more negative than L-type channels and by rapidly inactivating. […] This is the characteristic of the human T type calcium channel.
Human T-type calcium channel currents were measured with the Patch clamp on the “whole cell” configuration in HEK cells constitutively expressing human T type Calcium channel.

[4] = test system: P. berghei sporozoites in HepG2 cells; assay: Liver stage infection in HepG2 cells, qPCR of 18SrRNA; type: cell-based, Plasmodium berghei; details: for IC50: read-out: in-vitro liver stage IC50
Description: Liver stage infection in HepG2 cells: Salivary glands of Anopheles stephensi mosquitoes infected with green fluorescent protein (GFP)-expressing P. berghei ANKA (Insectary at National Institute of Immunology, New Delhi, India) were dissected out. Sporozoites were perched in complete medium (Dulbecco's Modified Eagle Medium (DMEM)) with 10% fetal bovine serum (FBS), 3% penicillin-streptomycin (P/S)), and allowed to infect HepG2 cells. The cells were already treated with Calxinin at various concentrations (0.1 μM, 1 μM and 10 μM). The plate was centrifuged at 3000 rpm for 5 minutes to ensure the sporozoites settled down in the plate, and then placed in the incubation at 37° C. for 3 hours. Afterwards, media was replaced with pre-warmed medium (DMEM, 10% FBS, 3% P/S, and 0.1% Fungizone) supplemented with dimethyl sulfoxide (DMSO), and Calxinin at indicated concentrations. After two days, the cells were treated with Trizol and […] at −80° C. RNA isolation followed by reverse transcription polymerase chain reaction (RTPCR) was done to estimate the parasite load in the infected cells.
Compound I was tested in vitro against Plasmodium liver stage parasites. HepG2 cells, a human hepatocyte cell line, were infected with Plasmodium berghie sporozoites (mosquito infective forms of malaria). One set of cells was treated with 0.4, 2.0 and 10.0 micromolar concentration of inhibitor Compound I, and the other set was left untreated. Sporozoite infection time was considered as zero time. Twenty-four hours after infection the culture media was refreshed and the inhibitors were replenished. After forty-eight hours, total cells were harvested and total RNA was extracted by the Trizol™ method. RNA was converted into cDNA and realtime PCR was performed using the parasite 18SrRNA primers. This determined the liver stage parasite burden, which was then converted into percent inhibition by comparing with the untreated set.
Liver schizont stages are the first stage of human infection after injection of sporozoites by mosquitoes. The activity of compounds against this stage offers the important part of the antimalarial therapy, chemoprotection. To evaluate the efficacy of Compound I against liver stage parasites, HepG2 cells were infected with P. berghei sporozoites, in triplicates, and dosed with 0.1, 1, 10 μM of Compound I dissolved in 1% DMSO. The parasite load was quantified in control and Compound I-treated cells by quantitative PCR (qPCR) using parasite specific 18SrRNA primers. […] Inhibitory effect decreases up to 61% while treating cells with 10 μM due to precipitation of compound at higher concentration (FIG. 3). […] The liver stage activity of Compound I is much higher over the current treatments, atovaquone (ATQ) in culture.

[5] = test system: peripheral blood mononuclear cells (PBMCs); assay: In vitro cytotoxicity, PBMC (MTT, Cell Titer Glo); type: cell-based, human
Description: (§1) [6] PBMC were isolated from healthy donors using the Ficoll-Paque™ technique (GE Healthcare Bioscience AB, Uppsala, Sweden) from donor leukopack samples obtained from LUMC blood bank services. […] Robust cells at a concentration of 80,000 cells/ml were plated into 96-well plates and incubated for 24 hours. Cell viability and proliferation was determined by use of both MTT and Cell Titer Glo@ assays for both cell types. MTT assay was conducted by addition of 10 μL MTT solution (5 mg/mL) into each well, incubated for 4 hour at 37° C. followed by addition of 50 μL DMSO to dissolve the formazan precipitate according to the manufacturer's protocol. Aliquots were drawn from each well and color intensity was measured spectrophotometrically in SpectraMax® M5 Multi-Mode Microplate Reader.
(§2) The cytotoxicity of Compound I was tested by exposing peripheral blood mononuclear cells (PBMCs) to drug concentrations corresponding to averages of both Pf3D7 and PfDd2 IC50 values. This was intended to establish whether the observed antiparasitic effects of the compounds were due to non-specific inhibitory activity. […] The IC50 required for killing the parasite is <90 nM. Therefore, in order to be toxic for human cells we have to use over 650 fold concentration.

[6] = In vitro cytotoxicity, PBMC (MTT, Cell Titer Glo); type: cell-based, human; details: human; PBMCs; read-out: CC50 (50% cell toxicity)
Description: as §1, §2

[7] = In vitro cytotoxicity, Huh 7.1 (Alamar Blue); type: cell-based; details: human, Huh 7.1 cells; read-out: CC50 (50% cell toxicity)
Description: In addition, the cell viability of Huh 7 and HEK293 cells was evaluated post drug exposure using the Alamar Blue assay [Riss, Terry L., et al. “Cell viability assays.” Assay Guidance Manual [Intenet]. Eli Lilly & Company and the National Centre for Advancing Translational Sciences, 2016]. Cells ([…]) were exposed to varying concentrations of test compounds, for 24 hours in 96-well plate format along with 10/100 μL Alamar Blue solution (10×=4.8 mM in phosphate buffer) per well. […] Results from the cytotoxicity assays were expressed as CC50 at which 50% of the cells died/metabolically slowed down due to drug exposure compared to the non-treated and vehicular control.
as §2

With NC(Cc1ccccc1)C(O)CN1CCN(Cc2ccc(C(F)(F)F)cc2)CC1 (stereo not shown) [Compound I] the “agonist-induced aggregation of human platelets” value (human platelets) was “did not alter agonist-induced aggregation of human platelets”, the “pathological examination of liver, kidney, stomach” value ([1]; 300 mg/kg oral for four consecutive days) was “does not indicate an increase or decrease of Kuepfer cells in the liver, loss of structural integrity in the kidney or lining of stomach” and the toxicity overall ([1]; 1200 mg/kg (300 mg/kg for four consecutive days)) was “no indication of toxicity”. The behavior ([1]; oral) was “no behavior changes were observed”, the body weight ([1]; oral) was “remained constant” and the “motor and feeding activities” value ([1]; oral) was “normal”. For the same compound, the IC50 ([2]; 3D7, read-out: IC50 against asexual stages, drug sensitive (CQ-sensitive) 3D7, text) was 88 nM, the IC50 ([2]; 72 h, read-out: Pf3D7 IC50, nM (±SD), asynchronous cultures, 37° C., 72 hours, SYBR Green I) was 90 nM and the IC50 ([2]; strain not specified, read-out: IC50 required for killing the parasite) was < 90 nM. For the same compound, the “activity of the Calcium T Channel (current amplitude, voltage dependence of activation)” value [3] was “No difference”, the inhibition at 0.1 µM ([4]; Plasmodium berghei, HepG2, 0.1 μM, read-out: inhibition of liver stage parasite load) was ~60% and the inhibition at 1 µM ([4]; Plasmodium berghei, HepG2, 1 μM, read-out: inhibition of liver stage parasite load) was ~88%. The inhibition at 10 µM ([4]; Plasmodium berghei, HepG2, 10 μM, precipitation of compound, read-out: inhibition of liver stage parasite load) was ≤ 61%, the IC50 ([4]; Plasmodium berghei, HepG2) was 0.079 µM and the IC50 ([4]; listed as Calxinin) was 0.065 µM. The “% PBMC viability relative to vehicle control” value ([5]; 24 hours) was > 100%, the “proliferation of the PBMCs (PBMC)” value ([5]; concentration = average of Pf3D7 and PfDd2 IC50, Cell Titer-GLO) was 110.12 and the CC50 at 24 h [6] was 1000 µM. For the same compound, the CC50 at 24 h [7] was 100 µM.
